Experimental data from patent publication US20040234981A1, “Method of determining dna base sequence” (priority 2001, published 2004).
Several values for one entry are separate records, joined by “and”; a condition that tells them apart may be missing. Equal entries are not always repeated. Values belong to the molecule of their own block, whether it stands above or below them.

What was measured:
[1] = system: fluorescent-labeled 3′-deoxynucleotide; experiment: Ability to incorporate fluorescent-labeled 3′-deoxynucleotide, fluorescent signal intensity on ABI 377 XL Sequencer; type: biochemical; conditions: for (1) Average signal intensity U: Bodipy(564/570)-3′dUTP; for (1) Average signal intensity U / (1) Average signal intensity C / (1) Average signal intensity G / (1) Average signal intensity A: 100 units of enzyme (50 units for F644Y/Δ1); for (1) Average signal intensity C: Bodipy(581/591)-3′dCTP; for (1) Average signal intensity G: Bodipy(FL)-3′dGTP; for (1) Average signal intensity A: Bodipy(R6G)-3′dATP; for (2) Signal intensity per unit of enzyme G: conversion of (1) per unit of enzyme; for Signal intensity per unit of enzyme A, value in parentheses relative to wild enzyme / Signal intensity per unit of enzyme C, value in parentheses relative to wild enzyme / Signal intensity per unit of enzyme G, value in parentheses relative to wild enzyme / Signal intensity per unit of enzyme U, value in parentheses relative to wild enzyme: relative to a value of 1 for the signal intensity of wild enzyme
Procedure: A comparison was conducted of the ability to incorporate florescent-labeled 3′-deoxynucleotide of Δ-type enzyme of purified T7 RNA polymerase.
This method was conducted in accordance with the method of Sasaki et al. (Sasaki, N., et al. Gene, 222(1): 17-24 (1998)). In greater detail, pBluescriptII DNA was employed as template. A solution obtained by mixing Bodipy(R6G)-3′dATP, Bodipy(FL)-3′dGTP, Bodipy(581/591)-3′dCTP, Bodipy(564/570)-3′dUTP, ATP, GTP, CTP, and UTP in prescribed proportions was employed to conduct reactions differing only with regard to the T7 RNA polymerase employed. The enzymes employed were 100 units of T7 RNA polymerase (wild type) and T7 RNA polymerase F644Y; and 50 units of T7 RNA polymerase F644Y/Δ1. The reaction product was subjected to electrophoresis with an ABI 377 XL Sequencer. The average value of the fluorescent signal intensity was compared for each nucleotide.
Column (2) is a conversion of the value of (1) per unit of enzyme. Numbers shown in parentheses denote values relative to a value of “1” for the signal intensity of wild enzyme. […] Since the ABI 377 XL Sequencer is not a device for quantitative analysis, and operations is conducted on an extremely small amount of samples, large errors are to be expected.

[2] = system: 3′-dATP; experiment: Test (1): 3′-dATP added during in vitro transcription, amount of RNA synthesized (SYBER Green II gel image); type: biochemical; conditions: 3′-dATP concentration 0.024 mM, wild form of T7 RNA polymerase taken as 1, inverse of RNA synthesis level
Procedure: (§1) The ability to incorporate 3′-dATP of the Δ type enzyme of purified T7 RNA polymerase was compared to that of the wild type and F644Y mutation.
In this method, 3′-dATP was added during an in vitro transcription reaction and the synthesis level was determined by comparison with synthesis impairment. This will be described in greater detail. The template employed was pBluescriptII (Stratagene) pretreated with the restriction enzyme ScaI (made by Nippon Gene). The reaction conditions were: 40 mM Tris-HCl, pH 8.0, 25 mM NaCl, 8 mM MgCl2, 2 mM spermidine-(HCl)3, and 5 mM DTT. The concentration of nucleotides ATP, CTP, GTP, and UTP was 0.5 mM. Of these, ATP was replaced with 3′-dATP (Sigma) in ranges of 0.006 mM, 0.008 mM, 0.012 mM, and 0.024 mM. The above purified enzymes were added to 20 μL of this solution and the reaction was conducted for 30 to 60 min at 37° C. At the conclusion of the reaction, 4 μL of 5× gel loading buffer was added (15% Ficoll, 0.1% BPB, 0.1% XC, 0.5% SDS, and 0.1 M EDTA). The entire solution was then subjected to electrophoresis in a 1% modified agarose gel containing formaldehyde. At the conclusion of electrophoresis, 10,000-fold dilution was conducted with SYBER Green II (made by Molecular Probe Co.) and dying was conducted for 20 to 40 min according to a protocol of addition to the product. A Fluoro S Multiimager (BiORad Co.) was then employed to irradiate ultraviolet radiation and pick up the fluorescent image. Multianalyst, an attached image analyzing software package, was used to determine the amount of RNA that had been synthesized from the image picked up. The various values of the results were compared. An increase in ability to incorporate 3′-dATP should result in a drop in the synthesis level. Accordingly, a comparison was made with a control, and the inverse thereof was employed as indicator of how readily 3′-dATP was incorporated.

[3] = system: 3′-dATP; experiment: Test (2): 3′-dATP added during in vitro transcription with Biotin-labeled CTP, chemoluminescent signal detection; type: biochemical; conditions: 3′-dATP concentration 0.00125 mM, wild form taken as 1, average of three runs
Procedure: as §1
In this method, 3′-dATP was added during an in vitro transcription reaction and the synthesis level was determined by comparison with synthesis impairment. This will be described in greater detail. The template employed was pBluescriptII (Stratagene) pretreated with the restriction enzyme ScaI (made by Nippon Gene). The reaction conditions were: 40 mM Tris-HCl, pH 8.0, 25 mM NaCl, 8 mM MgCl2, 2 mM spermidine-(HCl)3, and 5 mM DTT. The concentration of ribonucleotides rATP, rCTP, rGTP, and rUTP was 0.5 mM. A 0.1 mM quantity of Biotin-labeled CTP was added and 3′-dATP was added in ranges of 0.00125 mM, 0.0025 mM, and 0.005 mM. A 25 U quantity of enzymes purified as set forth above were added to 10 μL of this solution and the reaction was conducted for 60 min at 37° C. At the conclusion of the reaction, 1 μL of 10× gel loading buffer (1 mM EDTA, 1% SDS, 50% glycerol, and 0.05% BPB) was added. The entire solution was then subjected to electrophoresis in a 1% modified formamide gel. At the conclusion of electrophoresis, northern hybridization was conducted, the synthesized product was transcribed onto a nylon membrane, and signal detection was conducted based on a chemoluminescent substrate according to a protocol of anti-SA-AP antibody (made by Oriental Yeast Co., diluted 20,000-fold) and CDP-Star™ (made by Roche Co.). A Fluoro S Multiimager (BioRad Co.) and Multianalyst, an attached image analyzing software package, were then employed to determine the level of the signal detected.

[4] = system: 3′-deoxy nucleotide; conditions: Izawa, M., et al. J. Biol. Chem., 273 (23): 14242 (1998); cited from earlier work

- (2) Signal intensity per unit of enzyme G [1]: 2.0
- Signal intensity per unit of enzyme A, value in parentheses relative to wild enzyme [1]: (1.1)
- Signal intensity per unit of enzyme C, value in parentheses relative to wild enzyme [1]: (0.9)
- Signal intensity per unit of enzyme G, value in parentheses relative to wild enzyme [1]: (0.9)
- Signal intensity per unit of enzyme U, value in parentheses relative to wild enzyme [1]: (1.1)
Molecule: T7 RNA polymerase F644Y: mutant T7 RNA polymerase, tyrosine substituted for phenylalanine at residue 644; plasmid pT7RF644Y
- (1) Average signal intensity U [1]: 134
- (1) Average signal intensity C [1]: 136
- (1) Average signal intensity G [1]: 199
- (1) Average signal intensity A [1]: 74
- Relative ability to incorporate 3′-dATP [2]: 1.45
- Relative ability to incorporate 3′-dATP [3]: 1.20 ± 0.3
- Relative ability to incorporate 3′-dATP ([3]; listed as F644Y): 1.20±0.3 and 1.20
- Increase in ability to incorporate 3′-deoxy nucleotide relative to the corresponding wild form [4]: about fivefold

- (2) Signal intensity per unit of enzyme G [1]: 8.92
- Signal intensity per unit of enzyme A, value in parentheses relative to wild enzyme [1]: (2.3)
- Signal intensity per unit of enzyme C, value in parentheses relative to wild enzyme [1]: (2.2)
- Signal intensity per unit of enzyme G, value in parentheses relative to wild enzyme [1]: (4.0)
- Signal intensity per unit of enzyme U, value in parentheses relative to wild enzyme [1]: (2.8)
B1: T7 RNA polymerase F644Y/Δ1: T7 RNA polymerase F644Y deficient in amino acids 172 and 173; plasmid pT7RF644Y/Δ1, FERM BP-7619 (protein, UniProt P00573 1-883, looked up, variant F644Y del172-173)
T7 RNA polymerase: MNTINIAKNDFSDIELAAIPFNTLADHYGERLAREQLALEHESYEMGEARFRKMFERQLKAGEVADNAAAKPLITTLLPKMIARINDWFEEVKAKRGKRPTAFQFLQEIKPEAVAYITIKTTLACLTSADNTTVQAVASAIGRAIEDEARFGRIRDLEAKHFKKNVEEQLNVGHVYKKAFMQVVEADMLSKGLLGGEAWSSWHKEDSIHVGVRCIEMLIESTGMVSLHRQNAGVVGQDSETIELAPEYAEAIATRAGALAGISPMFQPCVVPPKPWTGITGGGYWANGRRPLALVRTHSKKALMRYEDVYMPEVYKAINIAQNTAWKINKKVLAVANVITKWKHCPVEDIPAIEREELPMKPEDIDMNPEALTAWKRAAAAVYRKDKARKSRRISLEFMLEQANKFANHKAIWFPYNMDWRGRVYAVSMFNPQGNDMTKGLLTLAKGKPIGKEGYYWLKIHGANCAGVDKVPFPERIKFIEENHENIMACAKSPLENTWWAEQDSPFCFLAFCFEYAGVQHHGLSYNCSLPLAFDGSCSGIQHFSAMLRDEVGGRAVNLLPSETVQDIYGIVAKKVNEILQADAINGTDNEVVTVTDENTGEISEKVKLGTKALAGQWLAYGVTRSVTKRSVMTLAYGSKEYGFRQQVLEDTIQPAIDSGKGLMFTQPNQAAGYMAKLIWESVSVTVVAAVEAMNWLKSAAKLLAAEVKDKKTGEILRKRCAVHWVTPDGFPVWQEYKKPIQTRLNLMFLGQFRLQPTINTNKDSEIDAHKQESGIAPNFVHSQDGSHLRKTVVWAHEKYGIESFALIHDSFGTIPADAANLFKAVRETMVDTYESCDVLADFYDQFADQLHESQLDKMPALPAKGNLNLRDILESDFAFA
- (1) Average signal intensity U [1]: 332
- (1) Average signal intensity C [1]: 317
- (1) Average signal intensity G [1]: 446
- (1) Average signal intensity A [1]: 156
- Relative ability to incorporate 3′-dATP [2]: 15.5
- Relative ability to incorporate 3′-dATP ([3]; listed as F644Y/Δ1): 2.30±0.3 and 2.30
- Relative ability to incorporate 3′-dATP ([3]; listed as T7 RNA polymerase F644Y/Δ 1): 2.30 ± 0.3
